Assay results from patent publication US4163780A (Kirin-Seagram Limited, priority 1977, dated 1979).

Tested on: influenza A2 -Kumamoto/Y5 (H2 N2) virus
Assay type: in vivo, influenza virus; DDI mice
Conditions: Virazole 50 mg/kg, intraperitoneal, 15 times

Q: For `NC(=O)c1ncn([C@@H]2O[C@H](CO)[C@@H](O)[C@H]2O)n1` [Virazole], which “Average of survival days” value is on record?
A: Its value is greater than 16.9 days.

Q: What about the Survival percentage of the same compound?
A: The Survival percentage was 30%.
